Experimental data as given in patent publication US9896730B2, “Use of EMT gene signatures in cancer drug discovery, diagnostics, and treatment” (OSI Pharmaceuticals, LLC, priority 2011, dated 2018).
Entries after “also recorded” stand apart in the source; their conditions may differ.

Tests used:
H358 cells [1] = test: 88 gene EMTGS qPCR and EMT characterization, ligand-driven H358 EMT model; assay type: cell-based, human; conditions: 7 day ligand stimulation
Protocol: Ligand-driven EMT models: NCI-H358 cells were cultured in RPMI medium (Gibco #21870) with 10% fetal bovine serum (Sigma), 1 mM sodium pyruvate (Gibco #11360), 2 mM L-glutamine (Gibco #25030) and 10 mM HEPES (Gibco #15630). For ligand treatment, cells were seeded in normal growth medium and stimulated the following day (Day 0) with 100 ng/ml HGF (Peprotech #100-39), 100 ng/ml OSM (R and D systems, 295-OM), 2.5 ng/ml TGFβ1 (EMD Biosciences #616450) or combinations of the three. Medium was changed and fresh ligand was added on day 4 and day 6 after stimulation, such that samples were stimulated with fresh ligand 24 hrs prior to RNA isolation. For analysis containing drug treatments, DMSO or Drug was added to the samples at time of ligand treatments. Samples were taken for RNA Day 1, Day 4 and Day 7. NCI-H1650 and NCI-H292 cells were grown in RPM medium (Gibco #21870) with 10% fetal bovine serum (Sigma), 1 mM sodium pyruvate (Gibco #11360), 2 mM L-glutamine (Gibco #25030) and 10 mM HEPES (Gibco #15630). CFPAC1 cells (ATCC #CRL-1918) were cultured in DMEM (Gibco #11960) supplemented with 10% FBS (Sigma), 2 mM L-glutamine (Gibco #25030). A549 cells were cultured in MEM with 10% fetal bovine serum, 2 mM L-glutamine and 1 mM sodium pyruvate. Cells were treated with ligand for 7 days and harvested as described for NCI-H358 cells in [249] unless otherwise noted. […]
(§1) Normalization genes used with 88 gene EMTGS for RT-PCR Analysis: The genes GTF2B, GAPDH, SDHA, and ACTB were chosen as normalization genes in qPCR analysis. […] The Delta Ct is then calculated as follows: Delta Ct=(Ct value of Gene X)−(Geometric mean of all normalization genes) For calculation of fold change between a control sample and a treated sample: Control sample=2^(−Delta Ct) Treated sample=2^(−Delta Ct) Fold change=Treated sample/Control sample Values below 1 (ratios) are converted to fold change by multiplying by −(1/X)

H358 cells [2] = test: Cell proliferation (Cell Titer Glo): erlotinib sensitivity in H358 EMT models; assay type: cell-based, human; conditions: ligand- and snai1-induced EMT
Protocol: (§2) Measurement of Cell Proliferation: Cell proliferation was determined using the Cell Titer Glo assay (Promega Corporation, Madison, Wis.). Cell lines were seeded at a density of 3000 cells per well in a 96-well plate. For assessment of drug effects on proliferation, 24 hours after plating, cells were dosed with varying concentrations of drug, either as a single agent or in combination. The signal for Cell Titer Glo was determined 72 hours after dosing.
(§3) Ligand-driven EMT models: NCI-H358 cells were cultured in RPMI medium (Gibco #21870) with 10% fetal bovine serum (Sigma), 1 mM sodium pyruvate (Gibco #11360), 2 mM L-glutamine (Gibco #25030) and 10 mM HEPES (Gibco #15630). For ligand treatment, cells were seeded in normal growth medium and stimulated the following day (Day 0) with 100 ng/ml HGF (Peprotech #100-39), 100 ng/ml OSM (R and D systems, 295-OM), 2.5 ng/ml TGFβ1 (EMD Biosciences #616450) or combinations of the three. Medium was changed and fresh ligand was added on day 4 and day 6 after stimulation, such that samples were stimulated with fresh ligand 24 hrs prior to RNA isolation. For analysis containing drug treatments, DMSO or Drug was added to the samples at time of ligand treatments. Samples were taken for RNA Day 1, Day 4 and Day 7. […]

H1650 cells = test: Cell proliferation (Cell Titer Glo): erlotinib sensitivity in H1650 EMT model; assay type: cell-based, human; conditions: H1650 cells in vitro, before or after EMT induction
Protocol: as §2, §3

[3] = test system: advanced, treatment-refractory NSCLC; conditions: Phase III, monotherapy, patients with advanced; cited from earlier work
lung tumors = conditions: adenocarcinoma patients versus squamous cell carcinoma patients; cited from earlier work
A549 cells = test: 88 gene EMTGS qPCR, A549 cells treated with TNF and TAK1 siRNA; assay type: cell-based, human; conditions: relative to untreated cells
Protocol: as §3, §1

TGFβ: transforming growth factor β, EMT-inducing ligand
extent of EMT induced (morphology, biomarker, phenotypic changes) (H358 cells [1]): more advanced EMT

C#Cc1cccc(Nc2ncnc3cc(OCCOC)c(OCCOC)cc23)c1 [erlotinib, [6,7-bis(2-methoxyethoxy)-4-quinazolin-4-yl]-(3-ethynylphenyl)amine]
sensitivity to erlotinib after EMT induction (H358 cells [2]): decreased sensitivity; also recorded: decreases
sensitivity to erlotinib (H1650 cells): not sensitive
disease progression [3]: delayed disease progression
survival [3]: significantly prolonged survival
worsening of lung cancer-related symptoms [3]: delayed worsening
clinical response (lung tumors): respond better

TNFa
effect on epithelial genes of 88 gene EMTGS (A549 cells): downregulation
effect on mesenchymal genes of 88 gene EMTGS (A549 cells): upregulation

HGF: hepatocyte growth factor, EMT-inducing ligand
extent of EMT induced (morphology, biomarker, phenotypic changes) (H358 cells [1]): partial EMT

B1: OSM: oncostatin M, EMT-inducing ligand (protein, UniProt P13725 26-221, looked up)
Oncostatin-M: AAIGSCSKEYRVLLGQLQKQTDLMQDTSRLLDPYIRIQGLDVPKLREHCRERPGAFPSEETLRGLGRRGFLQTLNATLGCVLHRLADLEQRLPKAQDLERSGLNIEDLEKLQMARPNILGLRNNIYCMAQLLDNSDTAEPTKAGRGASQPPTPTPASDAFQRKLEGCRFLHGYHRFMHSVGRVFSKWGESPNRSRR
extent of EMT induced (morphology, biomarker, phenotypic changes) (H358 cells [1]): partial EMT
